Patent US20200390689A1, “CERDULATINIB-CONTAINING TOPICAL SKIN PHARMACEUTICAL COMPOSITIONS AND USES THEREOF” (Dermavant Sciences GmbH, priority 2018, published 2020)
Read-outs that look alike come from different tables or passages of the source.

Key:
JAK2 = JAK2 (Homo sapiens, UniProt O60674); experiment: cell-based
[1] = system: monocyte differentiation into immature DCs; experiment: IL-4/GM-CSF-mediated monocyte differentiation to immature dendritic cells (flow cytometry); type: cell-based; details: Homo sapiens, 120 h, purified monocytes, CD1a expression after five days
Description: Dendritic cells (DCs) are important antigen presenting cells that play an integral role in mediating inflammatory skin diseases. A subset of DCs are derived from monocytes and this differentiation is driven by IL-4/GM-CSF co-stimulation. The ability of DMVT-502 to disrupt the signaling responsible for monocyte differentiation into immature DCs was assessed by flow cytometry. […] Five days later, cells were stained for CD14 (monocyte marker) and CD1a (immature dendritic cell marker) and assessed for immature DC differentiation.

[2] = system: IL-2 (JAK1/3-mediated signaling) STAT5 Y694 phosphorylation; experiment: IL-2 stimulated STAT5 Y694 phosphorylation in human whole blood; type: cell-based
Excerpt: (§1) To evaluate downstream signaling following cytokine stimulation, human whole blood was stimulated with IL-2 (JAK1/3-mediated signaling), which results in phosphorylation of STAT5 at tyrosine residue 694 (Y694). […] IL-6 (JAK1/2/Tyk2) stimulation leads to STAT3 Y705 phosphorylation in monocytes.

vitiligo = experiment: Study DMVT-502-9025, mouse model of vitiligo; type: in vivo
Description: The model mimics human vitiligo by inducing epidermal depigmentation with autoreactive CD8+ T-cell accumulation. A schematic of the model is depicted in FIG. 15. […] Ten mice were used in the study: three REX3 reporter mice for cytokines CXCL9 and CXCL10 and seven SCF (stem cell factor) mice. The vitiligo study timeline is depicted in FIG. 16. The following assessments were performed during the study: • Blinded scoring of ears, tail, nose, and ventral feet (0-5 scale) • Epidermal, dermal, spleen, and lymph node PMEL (premelanosome protein) cell count • Epidermal/dermal APC (antigen-presenting cell) count • Keratinocyte cytokine expression

[3] = system: IL-6 (JAK1/2/Tyk2) STAT3 Y705 phosphorylation; experiment: IL-6 stimulated STAT3 Y705 phosphorylation in human whole blood; type: cell-based; details: Monocyte, monocytes
Excerpt: as §1

[4] = system: DNCB-induced atopic dermatitis; experiment: DNCB-induced atopic dermatitis in the NC/Nga mouse model; type: in vivo
Description: Atopic dermatitis was induced by repeated application of DNCB (1-chloro-2,4-dinitrobenzene) to the dorsal skin of the ears/back. […] Lesions were evaluated on days 2, 8, 11, and 14.
Macroscopic lesion severity scores are depicted in FIG. 7. Macroscopic skin lesion severity was measured on the indicated Study Days by assessing (0-3 scale) the presence of erythema, edema, excoriation/erosion, and dryness scaling on the ears, neck, and dorsal skin of animals.
Serum IgE levels are depicted in FIG. 8. Serum samples obtained on Study Day 15 were utilized for IgE quantitation. Select cytokine data from the study are depicted in FIG. 9. Skin samples harvested on Day 15 were analyzed by LUMINEX for inflammatory cytokine levels for IL-4, IL-5, IL-13, and IL-31.

[5] = system: JAK1/JAK3-dependent signaling pathways; experiment: Cytokine-mediated STAT phosphorylation in peripheral blood mononuclear cells (phospho-flow cytometry); type: cell-based; details: Homo sapiens; PBMC; T cells and monocytes
Tyk2 = target: T1, Tyk2 (Homo sapiens, UniProt P29597); experiment: DiscoveRx cellular platform, Tyk2; type: cell-based
T1 construct: DiscoveRx
T1 sequence (P29597 whole entry): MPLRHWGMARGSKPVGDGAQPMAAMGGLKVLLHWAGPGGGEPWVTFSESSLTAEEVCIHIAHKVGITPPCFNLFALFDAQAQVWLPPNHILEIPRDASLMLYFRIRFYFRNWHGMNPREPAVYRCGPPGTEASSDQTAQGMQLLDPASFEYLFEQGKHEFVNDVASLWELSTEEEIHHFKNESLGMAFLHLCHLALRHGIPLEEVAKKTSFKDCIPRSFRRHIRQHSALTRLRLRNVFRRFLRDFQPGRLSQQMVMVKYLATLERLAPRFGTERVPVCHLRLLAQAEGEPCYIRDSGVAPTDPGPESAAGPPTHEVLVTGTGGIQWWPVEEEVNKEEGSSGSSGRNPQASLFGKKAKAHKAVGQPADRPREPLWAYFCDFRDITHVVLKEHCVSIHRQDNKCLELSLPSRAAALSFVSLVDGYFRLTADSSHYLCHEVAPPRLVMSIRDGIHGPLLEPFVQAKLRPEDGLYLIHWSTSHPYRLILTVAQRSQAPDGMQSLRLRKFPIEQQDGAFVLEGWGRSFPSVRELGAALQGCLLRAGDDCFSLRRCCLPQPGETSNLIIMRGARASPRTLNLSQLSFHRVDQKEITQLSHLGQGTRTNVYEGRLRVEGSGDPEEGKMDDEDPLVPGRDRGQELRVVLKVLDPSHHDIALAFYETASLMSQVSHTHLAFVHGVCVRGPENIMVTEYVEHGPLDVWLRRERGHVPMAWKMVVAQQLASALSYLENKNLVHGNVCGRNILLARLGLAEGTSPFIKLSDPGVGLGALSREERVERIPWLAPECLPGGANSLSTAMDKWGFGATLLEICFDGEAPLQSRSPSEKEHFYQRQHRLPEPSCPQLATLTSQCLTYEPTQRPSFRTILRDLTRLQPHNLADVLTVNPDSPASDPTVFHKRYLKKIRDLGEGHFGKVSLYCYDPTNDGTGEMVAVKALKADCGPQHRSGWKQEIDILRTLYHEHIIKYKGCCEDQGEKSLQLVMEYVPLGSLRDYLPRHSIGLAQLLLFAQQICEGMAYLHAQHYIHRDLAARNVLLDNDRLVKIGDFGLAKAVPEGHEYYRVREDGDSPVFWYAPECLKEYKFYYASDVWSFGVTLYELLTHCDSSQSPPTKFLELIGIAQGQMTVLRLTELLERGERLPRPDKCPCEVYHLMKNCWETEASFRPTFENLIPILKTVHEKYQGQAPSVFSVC

[6] = system: IL-4 (JAK1/3-mediated) STAT6 Y641 phosphorylation; experiment: IL-4 stimulated STAT6 Y641 phosphorylation in human whole blood; type: cell-based
Excerpt: as §1

[7] = system: IL-4-mediated upregulation of CD23 and CD25 on monocytes; experiment: IL-4-mediated upregulation of cell surface markers CD23 and CD25 on monocytes; type: cell-based; details: Homo sapiens, Monocyte
JAK1 = JAK1 (Homo sapiens, UniProt P23458); experiment: cell-based
Chain of JAK1 (P23458 whole entry): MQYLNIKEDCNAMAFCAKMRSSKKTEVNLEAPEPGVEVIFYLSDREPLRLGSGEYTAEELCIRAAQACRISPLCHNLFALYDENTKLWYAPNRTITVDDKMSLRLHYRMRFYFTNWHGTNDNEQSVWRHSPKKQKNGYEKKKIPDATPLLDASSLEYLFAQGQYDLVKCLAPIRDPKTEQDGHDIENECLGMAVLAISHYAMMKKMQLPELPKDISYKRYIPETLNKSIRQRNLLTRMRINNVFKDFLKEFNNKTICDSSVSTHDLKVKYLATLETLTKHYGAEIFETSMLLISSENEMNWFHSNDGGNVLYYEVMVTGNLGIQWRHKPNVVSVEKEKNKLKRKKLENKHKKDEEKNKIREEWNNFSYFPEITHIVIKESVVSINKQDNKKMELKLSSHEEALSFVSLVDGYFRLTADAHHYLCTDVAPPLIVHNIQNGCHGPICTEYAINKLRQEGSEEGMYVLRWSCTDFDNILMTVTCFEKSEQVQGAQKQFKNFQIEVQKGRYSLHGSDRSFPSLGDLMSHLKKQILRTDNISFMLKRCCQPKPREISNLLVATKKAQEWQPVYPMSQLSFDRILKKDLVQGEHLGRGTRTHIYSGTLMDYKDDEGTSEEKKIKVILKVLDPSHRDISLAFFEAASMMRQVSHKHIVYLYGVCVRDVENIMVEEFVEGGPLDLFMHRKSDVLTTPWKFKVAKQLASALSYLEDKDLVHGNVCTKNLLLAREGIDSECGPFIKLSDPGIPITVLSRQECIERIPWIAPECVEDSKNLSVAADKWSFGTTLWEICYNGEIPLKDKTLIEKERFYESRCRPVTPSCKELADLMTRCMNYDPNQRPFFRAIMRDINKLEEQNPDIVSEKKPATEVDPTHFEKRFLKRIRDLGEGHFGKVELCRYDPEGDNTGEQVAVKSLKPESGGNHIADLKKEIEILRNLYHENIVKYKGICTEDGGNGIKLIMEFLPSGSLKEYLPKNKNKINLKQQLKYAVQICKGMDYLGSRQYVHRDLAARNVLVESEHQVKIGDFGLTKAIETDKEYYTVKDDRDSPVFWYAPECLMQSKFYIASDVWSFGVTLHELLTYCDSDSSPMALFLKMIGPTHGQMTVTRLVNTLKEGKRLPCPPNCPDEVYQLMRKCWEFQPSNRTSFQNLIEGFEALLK

Syk = target: T2, Syk (Homo sapiens, UniProt P43405); experiment: DiscoveRx cellular platform, Syk; type: cell-based
T2 construct: DiscoveRx

[8] = system: GM-CSF (JAK2-mediated) STAT5 Y694 phosphorylation; experiment: GM-CSF stimulated STAT5 Y694 phosphorylation in human whole blood; type: cell-based; details: Monocyte, monocytes, read-out: IC50, GM-CSF induced STAT5 Y694 phosphorylation
[9] = 30 and 60 mg/kg oral, vs vehicle

Chain of JAK2 (O60674 whole entry): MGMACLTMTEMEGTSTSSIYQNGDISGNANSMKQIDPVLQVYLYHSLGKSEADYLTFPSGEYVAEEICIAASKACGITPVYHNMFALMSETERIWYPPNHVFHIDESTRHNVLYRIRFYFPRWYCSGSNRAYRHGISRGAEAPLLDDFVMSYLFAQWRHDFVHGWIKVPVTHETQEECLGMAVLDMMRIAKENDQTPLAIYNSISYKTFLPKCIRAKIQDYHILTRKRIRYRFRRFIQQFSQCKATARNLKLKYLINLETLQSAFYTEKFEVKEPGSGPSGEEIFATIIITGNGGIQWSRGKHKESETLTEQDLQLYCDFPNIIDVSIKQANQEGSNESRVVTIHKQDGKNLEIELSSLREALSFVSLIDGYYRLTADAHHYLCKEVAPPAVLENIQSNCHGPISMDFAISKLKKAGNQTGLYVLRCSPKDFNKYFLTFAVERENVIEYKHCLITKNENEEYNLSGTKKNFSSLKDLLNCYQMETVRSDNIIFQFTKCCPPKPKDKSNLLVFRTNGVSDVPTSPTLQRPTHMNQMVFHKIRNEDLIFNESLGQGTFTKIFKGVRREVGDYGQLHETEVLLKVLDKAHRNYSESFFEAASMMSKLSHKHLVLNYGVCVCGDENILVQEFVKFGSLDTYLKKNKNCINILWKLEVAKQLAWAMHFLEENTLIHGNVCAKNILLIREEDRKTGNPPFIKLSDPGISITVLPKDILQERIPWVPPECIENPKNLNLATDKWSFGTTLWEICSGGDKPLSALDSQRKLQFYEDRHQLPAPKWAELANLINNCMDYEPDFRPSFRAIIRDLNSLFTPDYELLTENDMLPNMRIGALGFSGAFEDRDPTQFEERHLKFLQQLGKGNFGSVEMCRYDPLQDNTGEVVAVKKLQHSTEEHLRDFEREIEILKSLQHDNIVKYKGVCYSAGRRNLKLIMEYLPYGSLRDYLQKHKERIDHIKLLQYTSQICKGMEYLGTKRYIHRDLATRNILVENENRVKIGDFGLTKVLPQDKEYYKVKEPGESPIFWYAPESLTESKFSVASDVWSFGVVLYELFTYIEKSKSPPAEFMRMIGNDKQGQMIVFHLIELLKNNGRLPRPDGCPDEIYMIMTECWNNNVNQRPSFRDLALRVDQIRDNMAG

## CCS(=O)(=O)N1CCN(c2ccc(Nc3ncc(C(N)=O)c(NC4CC4)n3)cc2)CC1 [DMVT-502, Cerdulatinib]
JAK2
  IC50: 4860 nM
[1]
  IC50: ~100 nM
[2]; CD4+ T cells
  IC50: 300 nM
[2]; T-cell, CD8+ T cells
  IC50: 160 nM
vitiligo; 60 mg/kg oral
  CD3+, CD8− T-cell counts in the spleen: significantly reduced
  Host T-cell counts in blood: significantly decreased
  PMEL T-cell counts in dermis and blood: significantly reduced
vitiligo; 60 mg/kg oral, vs vehicle
  APCs in the dermal skin compartment and Langerhans cells in the epidermal skin compartment: significantly reduced
vitiligo; 30 and 60 mg/kg once daily oral, 5 weeks, vs vehicle
  Vitiligo scores: significantly decreased
vitiligo; 30 and 60 mg/kg oral
  Host-derived total T-cell counts in the spleen: significantly reduced
vitiligo; [9]
  APC counts in lymph nodes and the spleen: significantly reduced
  PMEL T-cell counts in the epidermis and dermis: significantly reduced
vitiligo; 30 or 60 mg/kg oral
  CXCL9 and CXCL10 expression in lymph node APCs: Reduced
  Lymph node or spleen PMEL T cells: no significant differences
vitiligo; SCF/REX3 mice, vs vehicle
  CXCL9, CXCL10, and dual expression in keratinocytes: trends towards reduced
vitiligo; between treatment groups
  Total keratinocyte counts: No decrease
[3]
  IC50: 260 nM
[4]; Day 15, topical treatment
  Pro-inflammatory cytokine levels in skin: limited suppression
[4]; Study Day 15, topical therapy
  Serum IgE levels: trends towards reduction
[5]
  IC50: < 200 nM
Tyk2
  IC50: 1720 nM
[6]; B-cell, CD19+ B cells
  IC50: 920 nM
[6]; CD4+ T cells
  IC50: 580 nM
[6]; Monocyte, CD14+ monocytes
  IC50: 998 nM
[6]; T-cell, CD8+ T cells
  IC50: 330 nM
[7]; read-out: IC50, IL-4-mediated upregulation of CD23
  IC50: 230 nM
[7]; read-out: IC50, IL-4-mediated upregulation of CD25
  IC50: 420 nM
JAK1
  IC50: 98 nM
Syk
  IC50: 1280 nM
[8]
  IC50: ~4000 nM
